Measured values reported in PubChem BioAssay AID248 (DTP/NCI, 2004).
Several values for one entry are separate records, joined by “and”; a condition that tells them apart may be missing. Equal values may be shown once. Toxic doses and inconclusive results are not listed.

System: L1210 leukemia ip in BDF1 mice, survival T/C
Experiment: NCI In Vivo Anticancer Drug Screen. Data for tumor model L1210 Leukemia (intraperitoneal) in B6D2F1 (BDF1) mice
Settings: endpoint: mean survival time, higher = longer survival
Summary of the method: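 Mice bearing the transplanted tumor received compound or vehicle. Survival of the treated group was divided by that of the vehicle-treated control group to give the ratio.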

[1] = dose: 100.0 mg/kg/injection, schedule: Q04DX002 (ip), vehicle: saline with Tween-80
[2] = dose: 200.0 mg/kg/injection, schedule: Q04DX002 (ip), vehicle: saline with Tween-80
[3] = dose: 400.0 mg/kg/injection, schedule: Q04DX002 (ip), vehicle: saline with Tween-80
[4] = dose: 100.0 mg/kg/injection, schedule: Q04DX003 (ip), vehicle: saline with Tween-80
[5] = dose: 100.0 mg/kg/injection, schedule: Q04DX003 (ip), vehicle: saline
[6] = dose: 200.0 mg/kg/injection, schedule: Q04DX003 (ip), vehicle: saline with Tween-80
[7] = dose: 200.0 mg/kg/injection, schedule: Q04DX003 (ip), vehicle: saline
[8] = dose: 400.0 mg/kg/injection, schedule: Q04DX003 (ip), vehicle: saline with Tween-80
[9] = dose: 400.0 mg/kg/injection, schedule: Q04DX003 (ip), vehicle: saline
[10] = dose: 100.0 mg/kg/injection, schedule: Q01DX001 (ip), vehicle: Klucel (hydroxypropylcellulose) (HPC)
[11] = dose: 200.0 mg/kg/injection, schedule: Q01DX001 (ip), vehicle: Klucel (hydroxypropylcellulose) (HPC)
[12] = dose: 400.0 mg/kg/injection, schedule: Q01DX001 (ip), vehicle: Klucel (hydroxypropylcellulose) (HPC)

SMILES: Cc1n[nH]c(=O)[nH]c1=O
- T/C (dose: 3.0 mg/kg/injection, schedule: Q01DX009 (ip), vehicle: saline): 95 % of control
- T/C (dose: 6.0 mg/kg/injection, schedule: Q01DX009 (ip), vehicle: saline): 93 % of control
- T/C (dose: 12.0 mg/kg/injection, schedule: Q01DX009 (ip), vehicle: saline): 93 % of control
- T/C (dose: 24.0 mg/kg/injection, schedule: Q01DX009 (ip), vehicle: saline): 93 % of control
- T/C (dose: 48.0 mg/kg/injection, schedule: Q01DX009 (ip), vehicle: saline): 97 % of control
- T/C (dose: 67.5 mg/kg/injection, schedule: Q01DX Z (ip), vehicle: saline): 96 % of control
- T/C (dose: 125.0 mg/kg/injection, schedule: Q01DX Z (ip), vehicle: saline): 105 % of control
- T/C (dose: 200.0 mg/kg/injection, schedule: Q01DX001 (ip), vehicle: acetone): 97 % of control
- T/C (dose: 250.0 mg/kg/injection, schedule: Q01DX Z (ip), vehicle: saline): 96 % of control
- T/C (dose: 400.0 mg/kg/injection, schedule: Q01DX001 (ip), vehicle: acetone): 103 % of control
- T/C (dose: 500.0 mg/kg/injection, schedule: Q01DX Z (ip), vehicle: saline): 105 % of control
- T/C (dose: 800.0 mg/kg/injection, schedule: Q01DX001 (ip), vehicle: acetone): 98 % of control

SMILES: O=C(OCC1OCC(OC(=O)c2ccccc2)C1OC(=O)c1ccccc1)c1ccccc1 (stereo not given)
- T/C (dose: 100.0 mg/kg/injection, schedule: Q01DX001 (ip), vehicle: saline with Tween-80): 92 % of control
- T/C (dose: 200.0 mg/kg/injection, schedule: Q01DX001 (ip), vehicle: saline with Tween-80): 110 % of control

SMILES: CSc1ncnc2c1ncn2N(CC1CO1)C(C)=O (stereo not given)
- T/C [1]: 91 % of control
- T/C [2]: 91 % of control
- T/C [3]: 95 % of control

SMILES: O=C(NCc1ccccc1)C1C2CC3OC(=O)C1C3C2 (stereo not given)
- T/C [4]: 98 % of control
- T/C [5]: 123 % of control
- T/C [6]: 95 % of control
- T/C [7]: 104 % of control
- T/C [8]: 95 % of control
- T/C [9]: 104 % of control

SMILES: S=P(=Nc1ccccc1)c1ccccc1 (stereo not given)
- T/C [10]: 91 % of control
- T/C [11]: 89 % of control
- T/C [12]: 88 % of control

SMILES: Cc1ccc(Nc2nc(N)nc(N)c2N=O)cc1Cl
- T/C (dose: 100.0 mg/kg/injection, schedule: Q01DX Z (ip), vehicle: methylcellulose (MC)): 104 % of control
- T/C (dose: 200.0 mg/kg/injection, schedule: Q01DX Z (ip), vehicle: methylcellulose (MC)): 89 % of control

SMILES: O=C1CC(=O)NC(=O)N1
- T/C [4]: 91 % of control
- T/C [6]: 93 % of control
- T/C [8]: 91 % of control

SMILES: N#CCC(=O)N/N=C/c1ccccc1
- T/C [1]: 97 % of control
- T/C [2]: 101 % of control
- T/C [3]: 101 % of control

SMILES: COC(=O)c1cc(C)[nH]c(=O)c1CN
- T/C (dose: 75.0 mg/kg/injection, schedule: Q01DX001 (ip), vehicle: water): 104 % of control
- T/C (dose: 150.0 mg/kg/injection, schedule: Q01DX001 (ip), vehicle: water): 107 % of control

SMILES: CCOC(CN1CCCCC1)c1ccccc1 (stereo not given)
- T/C (dose: 12.5 mg/kg/injection, schedule: Q01DX009 (ip), vehicle: saline with Tween-80): 98 % of control
- T/C (dose: 25.0 mg/kg/injection, schedule: Q01DX009 (ip), vehicle: saline with Tween-80): 102 % of control
- T/C (dose: 50.0 mg/kg/injection, schedule: Q01DX009 (ip), vehicle: saline with Tween-80): 100 % of control

SMILES: O=P(N1CCCCCC1)(N1CC1)N1CC1
- T/C (dose: 1.7 mg/kg/injection, schedule: Q01DX Z (ip), vehicle: saline): 107 % of control
- T/C (dose: 2.6 mg/kg/injection, schedule: Q01DX Z (ip), vehicle: saline): 114 % of control
- T/C (dose: 4.0 mg/kg/injection, schedule: Q01DX Z (ip), vehicle: saline): 120 % of control
- T/C (dose: 9.0 mg/kg/injection, schedule: Q01DX Z (ip), vehicle: saline): 152 % of control

SMILES: COC1OC(COC(c2ccccc2)(c2ccccc2)c2ccccc2)C(OC)C(OC(C)=O)C1OC(C)=O (stereo not given)
- T/C (dose: 25.0 mg/kg/injection, schedule: Q04DX002 (ip), vehicle: Klucel (hydroxypropylcellulose) (HPC)): 95 % of control
- T/C (dose: 50.0 mg/kg/injection, schedule: Q04DX002 (ip), vehicle: Klucel (hydroxypropylcellulose) (HPC)): 95 % of control
- T/C (dose: 100.0 mg/kg/injection, schedule: Q04DX002 (ip), vehicle: Klucel (hydroxypropylcellulose) (HPC)): 92 % of control
- T/C (dose: 200.0 mg/kg/injection, schedule: Q04DX002 (ip), vehicle: Klucel (hydroxypropylcellulose) (HPC)): 102 % of control
- T/C (dose: 400.0 mg/kg/injection, schedule: Q04DX002 (ip), vehicle: Klucel (hydroxypropylcellulose) (HPC)): 90 % of control

SMILES: CCOC(=O)N1C2CC=CCC1C1(c3ccccc3)OC2(c2ccccc2)c2ccccc21
- T/C (dose: 100.0 mg/kg/injection, schedule: Q04DX002 (ip), vehicle: DMSO): 96 % of control

SMILES: CC[N+](CC)(CC)Cc1ccccc1 (tested in a mixture with another compound)
- T/C (dose: 6.25 mg/kg/injection, schedule: Q01DX009 (ip), vehicle: saline): 97 % of control
- T/C (dose: 12.5 mg/kg/injection, schedule: Q01DX009 (ip), vehicle: saline): 103 % of control
- T/C (dose: 25.0 mg/kg/injection, schedule: Q01DX001 (ip), vehicle: saline): 96 % of control
- T/C (dose: 25.0 mg/kg/injection, schedule: Q01DX009 (ip), vehicle: saline): 95 % of control and 108 % of control
- T/C (dose: 25.0 mg/kg/injection, schedule: Q04DX003 (ip), vehicle: saline): 111 % of control and 96 % of control
- T/C (dose: 50.0 mg/kg/injection, schedule: Q01DX001 (ip), vehicle: saline): 112 % of control
- T/C (dose: 50.0 mg/kg/injection, schedule: Q04DX003 (ip), vehicle: saline): 102 % of control and 104 % of control
- T/C (dose: 100.0 mg/kg/injection, schedule: Q01DX001 (ip), vehicle: saline): 98 % of control and 106 % of control
- T/C (dose: 100.0 mg/kg/injection, schedule: Q01DX009 (ip), vehicle: saline with Tween-80): 92 % of control
- T/C [5]: 88 % of control
- T/C (dose: 200.0 mg/kg/injection, schedule: Q01DX009 (ip), vehicle: saline with Tween-80): 96 % of control
- T/C (dose: 400.0 mg/kg/injection, schedule: Q01DX009 (ip), vehicle: saline with Tween-80): 92 % of control

SMILES: COc1ccccc1OCCOCCN(C)C1CC(C)CCC1C(C)C (stereo not given)
- T/C (dose: 100.0 mg/kg/injection, schedule: Q04DX003 (ip), vehicle: Klucel (hydroxypropylcellulose) (HPC)): 98 % of control

SMILES: CCc1nnnn1-c1ccc(Br)cc1
- T/C [10]: 93 % of control
- T/C [11]: 102 % of control
- T/C [12]: 116 % of control

SMILES: C[n+]1ccccc1/C=C/c1ccnc2c(O)cccc12
- T/C (dose: 75.0 mg/kg/injection, schedule: Q01DX001 (ip), vehicle: carboxymethylcellulose (CMC)): 107 % of control
- T/C (dose: 150.0 mg/kg/injection, schedule: Q01DX001 (ip), vehicle: carboxymethylcellulose (CMC)): 102 % of control

SMILES: N#C/C(=C/c1ccccc1)C(=O)O
- T/C (dose: 50.0 mg/kg/injection, schedule: Q01DX001 (ip), vehicle: carboxymethylcellulose (CMC)): 87 % of control
- T/C (dose: 100.0 mg/kg/injection, schedule: Q01DX001 (ip), vehicle: carboxymethylcellulose (CMC)): 96 % of control
- T/C (dose: 200.0 mg/kg/injection, schedule: Q01DX001 (ip), vehicle: carboxymethylcellulose (CMC)): 107 % of control

SMILES: CCOC(=O)CC/C(C)=N\N(C)C
- T/C [5]: 93 % of control
- T/C [7]: 97 % of control
- T/C [9]: 93 % of control

SMILES: CCOC(=O)C(O)(CC)c1ccncc1Br (stereo not given)
- T/C (dose: 75.0 mg/kg/injection, schedule: Q04DX003 (ip), vehicle: Klucel (hydroxypropylcellulose) (HPC)): 95 % of control
- T/C [10]: 102 % of control
- T/C (dose: 150.0 mg/kg/injection, schedule: Q04DX003 (ip), vehicle: Klucel (hydroxypropylcellulose) (HPC)): 91 % of control
- T/C [11]: 102 % of control
- T/C (dose: 300.0 mg/kg/injection, schedule: Q04DX003 (ip), vehicle: Klucel (hydroxypropylcellulose) (HPC)): 101 % of control
- T/C [12]: 112 % of control

SMILES: Cc1cc(NC(=O)Nc2cc(Cl)ccc2C)no1
- T/C (dose: 12.5 mg/kg/injection, schedule: Q01DX009 (ip), vehicle: Klucel (hydroxypropylcellulose) (HPC)): 95 % of control
- T/C (dose: 25.0 mg/kg/injection, schedule: Q01DX009 (ip), vehicle: Klucel (hydroxypropylcellulose) (HPC)): 106 % of control
- T/C (dose: 50.0 mg/kg/injection, schedule: Q01DX009 (ip), vehicle: Klucel (hydroxypropylcellulose) (HPC)): 98 % of control

SMILES: c1ccc(-c2noc(-c3ccccc3)n2)cc1
- T/C (dose: 62.5 mg/kg/injection, schedule: Q04DX002 (ip), vehicle: Klucel (hydroxypropylcellulose) (HPC)): 90 % of control
- T/C (dose: 125.0 mg/kg/injection, schedule: Q04DX002 (ip), vehicle: Klucel (hydroxypropylcellulose) (HPC)): 87 % of control
- T/C (dose: 250.0 mg/kg/injection, schedule: Q04DX002 (ip), vehicle: Klucel (hydroxypropylcellulose) (HPC)): 93 % of control
